Experimental data from US10124065B2, “Lipids and lipid compositions for the delivery of active agents” (Novartis AG, priority 2013, dated 2018).
“And” between values parts separate entries of the source, which are not always exact repeats. Equal values may be shown once.

Assays:
[1] = Particle size of lipid nanoparticle (dynamic light scattering, Malvern Zetasizer); type: physicochemical; conditions: FVII siRNA LNP; Chol/DSPC/S010, molar ratio 45/44/9/2; Z-average
Excerpt: The lipid nanoparticles have a size of about 1 to about 2,500 nm, about 1 to about 1,500 nm, about 1 to about 1,000 nm, in a sub-embodiment about 50 to about 600 nm, in a sub-embodiment about 50 to about 400 nm, in a sub-embodiment about 50 to about 250 nm, and in a sub-embodiment about 50 to about 150 nm. Unless indicated otherwise, all sizes referred to herein are the average sizes (diameters) of the fully formed nanoparticle, as measured by dynamic light scattering on a Malvern Zetasizer. The nanoparticle sample is diluted in phosphate buffered saline (PBS) so that the count rate is approximately 200-400 kcts. The data is presented as a weighted average of the intensity measure. Unless indicated otherwise, all particle size measurements referred to in Tables 4 and 5 are the Z-average particle size of the fully formed nanoparticle, as measured by dynamic light scattering on a Malvern Zetasizer. The nanoparticle sample was diluted in phosphate buffered saline (PBS) so that the count rate is approximately 200-400 kcts.

[2] = Polydispersity index (PDI) of lipid nanoparticle (dynamic light scattering); type: physicochemical; conditions: FVII siRNA LNP; Chol/DSPC/S010, molar ratio 45/44/9/2
Method: Unless indicated otherwise, all PDIs referred to herein are the PDI of the fully formed nanoparticle, as measured by dynamic light scattering on a Malvern Zetasizer. The nanoparticle sample was diluted in phosphate buffered saline (PBS) so that the count rate was approximately 200-400 kcts. The data is presented in Tables 4 and 5 as a weighted average of the intensity measure.

[3] = system: plasma Factor VII enzyme activity; test: Mouse Factor VII dosing / Factor VII Activity Assay; type: in vivo; conditions: percent knock down of plasma Factor VII activity; CD-1 mice, single IV dose 0.03 mg/kg, 48 h; LNP Chol/DSPC/S010 45/44/9/2
Method: Female CD-1 mice were received from Harlan Labs and maintained on standard lab chow and water ad libitum. The animals weighed approximately 25 grams at time of dosing. Formulated Factor VII siRNA was administered as a single dose intravenously via the lateral tail vein. Approximately 48 hours after injection, the mice were euthanized by CO2 inhalation followed by exsanguination through the vena cava. […] Plasma collected from injected mice was assayed for Factor VII enzyme activity using the Biophen FVII kit from Hyphen Biomedical (catalog number 221304). An assay standard curve was prepared using pooled plasma aliquots from the vehicle control animals. All samples were diluted to fall within the linear range of the standard curve and Factor VII activity relative to control plasma was reported. Lipid nanoparticles comprising lipid compounds of formula (I) and the FVII siRNA duplex sequence listed above were tested in the Factor VII Activity Assay. The results of this assay are given in Table 4 below as a percent knock down of plasma Factor VII enzyme activity at a dose of 0.3 mg/kg and 0.03 mg/kg.

[4] = system: respiratory syncytial virus F protein; test: Immunization studies, anti-RSV-F titers; type: in vivo; conditions: anti-RSV-F titer; BALB/c; course A = days 0 & 21; 4 weeks after second dose; liposomes with 0.1 μg vA317 replicon (naked: 1 μg)
Method: BALB/c were immunized with liposomes comprising DSPC, cholesterol, and various lipids of the invention (or, for comparison, the cationic lipid 1,2-dilinoleyloxy-N,N-dimethyl-3-aminopropane or ‘DLinDMA’). The liposomes encapsulated 0.1 μg of “vA317” self-replicating RNA replicon which encodes respiratory syncytial virus F protein (see WO2012/031043). […] Doses were given either on days 0 & 21 or days 0 & 42. Immune responses were assessed 2 weeks after each dose (2wp1, 2wp2), and in some cases also at 4 weeks after the second dose (4wp2).

Row | SMILES | Size (nm) [1] | PDI [2] | KD FVII 0.03 mg/kg [3] | 4wp2 pool 1 [4] | 4wp2 pool 2 [4]
1 | CCCCC/C=C\C/C=C\CCCCCCCC(=O)OCCCOc1cc(CN(C)C)cc(OCCCOC(=O)CC(CCCCCCCC)CCCCCCCC)c1 [Ex. 97, (9Z,12Z)-3-(3-((dimethylamino)methyl)-5-(3-((3-octylundecanoyl)oxy)propoxy)phenoxy)propyl octadeca-9,12-dienoate] | 98.01 nm | 0.106 | – | – | –
2 | CCCCCCCCOC(=O)CCCCCCCC(=O)OCCCOc1cc(CN(C)C)cc(OCCCOC(=O)CCCCCCCC(=O)OCCCCCCCC)c1 [Ex. 98, O′^1,O^1-(((5-((dimethylamino)methyl)-1,3-phenylene)bis(oxy))bis(propane-3,1-diyl)) 9-dioctyl dinonanedioate] | 164.6 nm | 0.096 | – | – | –
3 | CCCCCCCC(=O)OCC(COC(=O)CCCCCCC)OC(=O)CCC(=O)OCc1cc(COC(=O)CCC(=O)OC(COC(=O)CCCCCCC)COC(=O)CCCCCCC)cc(CN(C)C)c1 [Ex. 107, bis(1,3-bis(octanoyloxy)propan-2-yl) O,O′-((5-((dimethylamino)methyl)-1,3-phenylene)bis(methylene))disuccinate] | 191.7 nm | 0.071 | – | – | –
4 | CCCCC/C=C\C/C=C\CCCCCCCC(=O)OCCCCOc1cc(CN(C)C)cc(OCCCCOC(=O)CC(CCCCCCCC)CCCCCCCC)c1 [Ex. 109, (9Z,12Z)-4-(3-((dimethylamino)methyl)-5-(4-((3-octylundecanoyl)oxy)butoxy)phenoxy)butyl octadeca-9,12-dienoate] | 91.98 nm | 0.09 | 68.97% | – | –
5 | CCCCC/C=C\C/C=C\CCCCCCCCOc1cc(COC(=O)CCN(C)C)cc(OCCCCCCCC/C=C\C/C=C\CCCCC)c1 [Example 14, 3,5-bis((9Z,12Z)-octadeca-9,12-dien-1-yloxy)benzyl 3-(dimethylamino)propanoate] | 81.74 nm | 0.059 | – | 13687 and 21375 | 18851 and 21347
6 | CCCCC/C=C\C/C=C\CCCCCCCCOc1cc(COC(=O)CCN(C)C)cc(OCCCCCCCC/C=C\C/C=C\CCCCC)n1 [Example 31, (2,6-bis((9Z,12Z)-octadeca-9,12-dien-1-yloxy)pyridin-4-yl)methyl 3-(dimethylamino)propanoate] | 81.16 nm | 0.049 | – | – | –
7 | CCCCC/C=C\C/C=C\CCCCCCCCOC(=O)CCC(=O)OCc1cc(COC(=O)CCC(=O)OCCCCCCCC/C=C\C/C=C\CCCCC)cc(CN(C)C)c1 [Example 77, O,O′-((5-((dimethylamino)methyl)-1,3-phenylene)bis(methylene))di((9Z,12Z)-octadeca-9,12-dien-1-yl)disuccinate] | 154.1 nm | 0.014 | – | – | –
8 | CCCCCCCCCC(=O)OCCCCCCCC(=O)OCc1cc(COC(=O)CCCCCCCOC(=O)CCCCCCCCC)cc(CN(C)C)c1 [Example 83] | 128.5 nm | 0.005 | – | – | –
9 | CCCCC/C=C\C/C=C\CCCCCCCCOC(=O)CCCCOc1cc(CN(C)C)cc(OCCCCC(=O)OCCCCCCCC/C=C\C/C=C\CCCCC)c1 [Example 89, di((9Z,12Z)-octadeca-9,12-dien-1-yl) 5,5′-((5-((dimethylamino)methyl)-1,3-phenylene)bis(oxy))dipentanoate] | 101.5 nm | 0.076 | – | – | –
10 | CCCCCCCC(=O)OC[C@H](CCOc1cc(CN(C)C)cc(OCC[C@@H](COC(=O)CCCCCCC)OC(=O)CCCCCCC)c1)OC(=O)CCCCCCC [Example 93, (S)-4-(3-((S)-3,4-bis(octanoyloxy)butoxy)-5-((dimethylamino)methyl)phenoxy)butane-1,2-diyldioctanoate] | – | – | 89.71% | – | –
11 | CCCCCCCC(=O)OC[C@@H](CCOc1cc(CN(C)C)cc(OCC[C@H](COC(=O)CCCCCCC)OC(=O)CCCCCCC)c1)OC(=O)CCCCCCC [Example 94, (R)-4-(3-((R)-3,4-bis(octanoyloxy)butoxy)-5-((dimethylamino)methyl)phenoxy)butane-1,2-diyldioctanoate] | – | – | 90% | – | –
